This is an account of results in PubChem BioAssay (NCI).

Among the test systems are HOP-18 NSCLC; SF-268 CNS; KM20L2 colon; NCI-H460 lung; RXF 393 renal; UACC-62 melanoma; UACC-257 melanoma; NCI-H23 lung; SK-OV-3 ovarian; SNB-78 CNS; HL-60(TB) leukemia; MDA-N.
Holding throughout (test): NCI anticancer screen, dose series, 48 h

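Cultured in 96-well plates, cells were exposed to test compound for 48 hours across five concentrations. GI50: concentration for 50% inhibition of growth. TGI denotes the concentration required for complete inhibition of growth.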 Where a SMILES comes first, the peptide text is derived from it. The star is where a group is joined. Fmoc = O=C(OCC1c2ccccc2-c2ccccc21)*; OBn = c1ccc(CO*)cc1; tBu = CC(C)(C)*

On to `CC(C)C(Nc1c2ccccc2[n+](C)c2ccccc12)C(=O)O` (stereo not drawn), for which the TGI with HOP-18 NSCLC, in the experiment on SF-268 CNS, in the experiment with KM20L2 colon, with NCI-H460 lung, in the experiment on RXF 393 renal and in the experiment with UACC-62 melanoma was more than 100 µM throughout. Besides, the TGI in the experiment on UACC-257 melanoma, in the experiment on NCI-H23 lung, with SK-OV-3 ovarian, with SNB-78 CNS and with HL-60(TB) leukemia was more than 100 µM throughout.
Regarding `Nc1ncnc2c1ncn2C1C(O)C=C(CO)C1O` (stereo not drawn), the TGI with HOP-18 NSCLC, in the experiment on SF-268 CNS, in the experiment on KM20L2 colon, with NCI-H460 lung, in the experiment with UACC-62 melanoma and in the experiment on SK-OV-3 ovarian was more than 625 µM each time. For the same molecule, the TGI in the experiment on SNB-78 CNS and in the experiment on HL-60(TB) leukemia was more than 625 µM each time.
Turning to `O=c1c2ccccc2n2nnc3ccc(NCCNCCO)c1c32`, the TGI in the experiment on HOP-18 NSCLC came out at 8.67 µM; in the experiment on SF-268 CNS it was 6.46 µM; in the experiment with KM20L2 colon, 8.29 µM; with NCI-H460 lung it was 2.83 µM; in the experiment on RXF 393 renal, 7.24 µM; in the experiment with MDA-N, 10.3 µM. Also, the TGI was determined as 8.68 µM in the experiment with UACC-62 melanoma; 12.3 µM in the experiment with UACC-257 melanoma; 8.85 µM in the experiment on NCI-H23 lung; 16.5 µM in the experiment on SK-OV-3 ovarian; 27.6 µM with SNB-78 CNS; 5.24 µM in the experiment on HL-60(TB) leukemia.
Consider `CC(OC(C)(C)C)C(NC(=O)OCC1c2ccccc2-c2ccccc21)C(=O)NC(Cc1ccccc1)C(=O)OCc1ccccc1` (stereo not drawn) (Fmoc-Thr(tBu)-Phe-OBn; configuration not given here), for which the TGI in the experiment with SF-268 CNS, in the experiment on NCI-H460 lung, with RXF 393 renal, in the experiment on MDA-N, with UACC-62 melanoma and in the experiment on UACC-257 melanoma was more than 100 µM throughout. Also, the TGI in the experiment with NCI-H23 lung, with SK-OV-3 ovarian and in the experiment with HL-60(TB) leukemia was more than 100 µM each time.
Consider `CC(=O)CCN1CC2CN=NC2(C#N)C1` (stereo not drawn), for which the TGI with SF-268 CNS, with NCI-H460 lung, with RXF 393 renal, with MDA-N, with UACC-62 melanoma and with UACC-257 melanoma was more than 100 µM throughout. In addition, the TGI is more than 100 µM in the experiment on NCI-H23 lung, more than 100 µM in the experiment with SK-OV-3 ovarian and more than 62.6 µM with HL-60(TB) leukemia. In addition, in the experiment on SK-OV-3 ovarian, the GI50 was more than 100 µM.
As to `CCOC(=O)c1c(-c2ccc(Cl)cc2)c(C#N)c(=S)n(C2OC(COC(C)=O)C(OC(C)=O)C(OC(C)=O)C2OC(C)=O)c1C` (stereo not drawn), the TGI in the experiment on SF-268 CNS, in the experiment with NCI-H460 lung, in the experiment on RXF 393 renal, with MDA-N, with UACC-62 melanoma and with UACC-257 melanoma was more than 100 µM in each case. For the same molecule, the TGI with NCI-H23 lung, in the experiment with SK-OV-3 ovarian and in the experiment with HL-60(TB) leukemia was more than 100 µM each time.
`Nc1ncnc2c1ncn2CCCNO`: the TGI in the experiment with SF-268 CNS, in the experiment with NCI-H460 lung, with RXF 393 renal, with MDA-N, in the experiment on UACC-62 melanoma and with UACC-257 melanoma was more than 100 µM throughout. Further, the TGI with NCI-H23 lung, with SK-OV-3 ovarian and in the experiment with HL-60(TB) leukemia was more than 100 µM each time.
Take `NCC1OC(OC2C(N)CC(N)C(O)C2OC2OC(CO)C(O)C2O)C(N)C(O)C1O` (stereo not drawn): the TGI was more than 100 µM with SF-268 CNS; more than 100 µM in the experiment with NCI-H460 lung; more than 50 µM in the experiment with RXF 393 renal; more than 100 µM in the experiment with MDA-N; more than 100 µM in the experiment on UACC-62 melanoma; more than 100 µM with UACC-257 melanoma. Also, the TGI in the experiment with NCI-H23 lung, in the experiment on SK-OV-3 ovarian and in the experiment on HL-60(TB) leukemia was more than 100 µM throughout.
As for `CCOC(=O)C(NC(=O)c1ccccc1)(Nc1ccc(S(=O)(=O)Nc2cc(C)on2)cc1)C(F)(F)F` (stereo not drawn), the TGI was more than 100 µM with SF-268 CNS; more than 100 µM in the experiment on NCI-H460 lung; more than 100 µM with RXF 393 renal; more than 100 µM in the experiment with MDA-N; more than 100 µM with UACC-62 melanoma; more than 10 µM in the experiment with UACC-257 melanoma. Further, the TGI was more than 10 µM with NCI-H23 lung, more than 100 µM in the experiment on SK-OV-3 ovarian and more than 100 µM in the experiment with HL-60(TB) leukemia.
Consider `CCOc1ccc(Nc2nc(N)nc(N)c2N=O)cc1`, for which the TGI in the experiment on SF-268 CNS, in the experiment with NCI-H460 lung, with RXF 393 renal, in the experiment with MDA-N, in the experiment with UACC-62 melanoma and with UACC-257 melanoma was more than 100 µM in each case. The TGI in the experiment with NCI-H23 lung, with SK-OV-3 ovarian and in the experiment on HL-60(TB) leukemia was more than 100 µM in each case.
On to `Cc1cc(C)c(C2=NO[C@@H]3[C@H]2C(=O)C=C2N(Cc4ccccc4)CCO[C@@]23O)c(C)c1`, for which the TGI in the experiment on HOP-18 NSCLC, in the experiment on SF-268 CNS, in the experiment on KM20L2 colon, in the experiment on NCI-H460 lung, with RXF 393 renal and in the experiment with UACC-62 melanoma was more than 100 µM throughout. Further, the TGI with UACC-257 melanoma, in the experiment with NCI-H23 lung, with SK-OV-3 ovarian, with SNB-78 CNS and with HL-60(TB) leukemia was more than 100 µM each time.
On to `CCOC(=O)NC(Nc1ccc(C(=O)O)cc1)(C(F)(F)F)C(F)(F)F`, for which the TGI with SF-268 CNS, in the experiment with NCI-H460 lung, in the experiment on RXF 393 renal, in the experiment on MDA-N, in the experiment on UACC-62 melanoma and in the experiment with UACC-257 melanoma was more than 100 µM in each case. The TGI with NCI-H23 lung, with SK-OV-3 ovarian and with HL-60(TB) leukemia was more than 100 µM throughout.
With `c1csc(-c2cc(-c3ccsc3)cs2)c1`, the TGI in the experiment on SF-268 CNS, with NCI-H460 lung, with RXF 393 renal, with MDA-N, in the experiment with UACC-62 melanoma and in the experiment on UACC-257 melanoma was more than 100 µM in each case. The TGI with NCI-H23 lung was 93.8 µM; with SK-OV-3 ovarian it was more than 100 µM; with HL-60(TB) leukemia, more than 100 µM.
In the case of `COC(=O)c1sc2c(Cl)c(Cl)sc2c1Cl`, the TGI in the experiment on SF-268 CNS, with NCI-H460 lung, with RXF 393 renal, in the experiment on MDA-N, in the experiment with UACC-62 melanoma and in the experiment on UACC-257 melanoma was more than 100 µM throughout. For the same molecule, the TGI in the experiment with NCI-H23 lung, with SK-OV-3 ovarian and in the experiment on HL-60(TB) leukemia was more than 100 µM throughout.
